Consider 17 molecules from patent US20230036854A1, “HETEROCYCLIC SPIRO-COMPOUNDS AS AM2 RECEPTOR INHIBITORS” (THE UNIVERSITY OF SHEFFIELD, priority 2018, published 2023).

T1 sequence (Q16602 23-461): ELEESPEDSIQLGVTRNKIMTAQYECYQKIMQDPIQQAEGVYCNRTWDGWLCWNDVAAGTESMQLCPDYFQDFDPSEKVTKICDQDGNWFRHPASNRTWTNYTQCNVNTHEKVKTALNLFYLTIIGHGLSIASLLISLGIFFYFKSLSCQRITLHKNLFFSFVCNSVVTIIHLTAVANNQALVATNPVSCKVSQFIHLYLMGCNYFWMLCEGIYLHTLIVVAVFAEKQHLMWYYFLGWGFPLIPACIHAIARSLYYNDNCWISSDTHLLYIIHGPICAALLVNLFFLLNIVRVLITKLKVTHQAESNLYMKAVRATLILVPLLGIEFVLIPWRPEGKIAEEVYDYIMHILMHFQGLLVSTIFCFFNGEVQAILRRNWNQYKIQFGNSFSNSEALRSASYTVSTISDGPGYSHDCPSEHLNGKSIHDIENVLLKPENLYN
T1 sequence (O60896 24-148): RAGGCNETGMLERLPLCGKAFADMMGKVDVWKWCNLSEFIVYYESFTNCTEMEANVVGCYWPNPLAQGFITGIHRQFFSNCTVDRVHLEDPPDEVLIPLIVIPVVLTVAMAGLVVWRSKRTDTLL

This assay addresses T1, AM2 receptor (1321N1 cells transfected with CALCRL+RAMP3) (Homo sapiens, UniProt O60896+Q16602).
T1 construct: host or cells: 1321N1 cells
The experiment in a line: AM2 receptor inhibition, LANCE cAMP agonist-antagonist competition assay. Particulars: inhibition of AM induced cAMP activation, read-out: AM2 D2 protocol: pIC50 (converted). It is filed as cell-based. As to the method:
Compounds were assessed for their ability to inhibit ligand-induced elevations of cAMP, using the Perkin Elmer LANCE cAMP assay using commercially-available cells expressing a specific receptor of interest using the following general procedure:
Compounds were prepared in dimethyl sulfoxide (DMSO—99.9% pure) (Sigma Aldrich, Cat #: D4540) added to powder stocks to produce a 20 mM solution (100% DMSO) that was sonicated at 37° C. for 10 minutes to fully dissolve the compounds. The 20 mM stocks were diluted further in DMSO to produce a 2 mM solution that was sonicated at 37° C. for 10 minutes. 2 mM stocks were dissolved in assay/stimulation buffer to produce a 400 μM solution that was sonicated at 37° C. for 10 minutes for all cAMP assays. All stocks were stored at −20° C. Then serial dilution (Dilution factor: 10) was performed to achieve the desire experimental concentrations.
Competition assays were performed according to the manufactures instructions using LANCE® TR-FRET cAMP assay kit (Perkin Elmer, Cat #: AD0264). Serial dilutions (3 μl/well) of the molecules were plated in a 384-well OptiPlate (Perkin Elmer, Cat #: 6007299) in duplicates. Appropriate controls (100% stimulation: Forskolin and 0% stimulation: Vehicle control) (6 μl/well) were included in each plate for data normalization. Following the compound addition, 6 μl of G-protein coupled receptor overexpressing cells/Alexa Fluor antibody solution (1:100 dilution) was added in each well at a desired density of 2500cells/well. The overexpressing cell lines were purchased from DiscoveRx, Birmingham, UK. After spinning the plate at 1000 rpm for 1 minute and vortexing briefly, the cells were pre-incubated with the compounds for 30 minutes at room temperature (covered). Then 3 μl of the equivalent peptide ligand (EC50 dose) was added to all the wells except vehicle and forskolin controls. The plate were then spun down at 1000 rpm for 1 minute and once finished they were vortexed briefly and covered. Cells were stimulated in the presence of the ligands for 15 minutes at room temperature. After stimulation 12 μl of detection mix (Europium-Chelate streptavidin/biotinylated cAMP tracer solution) was added to all wells and incubated for 60 minutes at room temperature. The plate was then read on the Enspire multimode Plate reader (Perkin Elmer), at; 320/340 nm excitation and 615/665 nm emission was recorded.
Assay/Stimulation Buffer (30 mL)—pH 7.4 • 28 mL Hank's Balanced salt solution (+MgCl2, +CaCl2)—(Thermo Fisher Cat #:14170112) • 150 μl HEPES (1M)—(Thermo Fisher Cat #:15630080) • 400 μl Stabilizer (DTPA) Purified BSA (7.5%)—(Perkin Elmer, Cat #: CR84-100)
The ability of a compound to inhibit the AM induced cAMP activation in AM2 receptor-expressing cells (1321N1 cells transfected with CALCRL+RAMP3, sourced from DiscoverX catalogue number 95-0169C6) was assessed using the protocol above.
(Time-resolved FRET reads energy transfer from a long-lived donor to a nearby acceptor.)
On to `CNCc1ccccc1CN(CC(=O)Nc1ccc2c(c1)CC1(C2)C(=O)Nc2ncccc21)C(=O)C1(C)CCN(C(C)=O)CC1` (centres unmarked) [Example 1, 1-Acetyl-4-methyl-N-(2-((methylamino)methyl)benzyl)-N-(2-oxo-2-((2′-oxo-1,1′,2′,3-tetrahydrospiro[indene-2,3′-pyrrolo[2,3-b]pyridin]-5-yl)amino)ethyl)piperidine-4-carboxamide 2,2,2-trifluoroacetate], for which the IC50 was 2.57 nM.

Regarding `CNCc1ccccc1CN(CC(=O)Nc1ccc2c(c1)CC1(C2)C(=O)Nc2ncccc21)C(=O)C1(C)CCNCC1` (centres unmarked) [Example 2, 4-Methyl-N-(2-((methylamino)methyl)benzyl)-N-(2-oxo-2-((2′-oxo-1,1′,2′,3-tetrahydrospiro[indene-2,3′-pyrrolo[2,3-b]pyridin]-5-yl)amino)ethyl)piperidine-4-carboxamide bis(2,2,2-trifluoroacetate)], the IC50 is 3.39 nM.

In the case of `CNCc1ccccc1CN(CC(=O)Nc1ccc2c(c1)C[C@@]1(C2)C(=O)Nc2ncccc21)C(=O)C1(C)CCNCC1` [Example 3, (R)-4-Methyl-N-(2-((methylamino)methyl)benzyl)-N-(2-oxo-2-((2′-oxo-1,1′,2′,3-tetrahydrospiro[indene-2,3′-pyrrolo[2,3-b]pyridin]-5-yl)amino)ethyl)piperidine-4-carboxamide], the IC50 is 7.76 nM.

As to `CNCc1ccccc1CN(CC(=O)Nc1ccc2c(c1)CC1(C2)C(=O)Nc2ncccc21)C(=O)C1(C)CCN(C(=O)c2ccccc2)CC1` (centres unmarked) [Example 4, 1-Benzoyl-4-methyl-N-(2-((methylamino)methyl)benzyl)-N-(2-oxo-2-((2′-oxo-1,1′,2′,3-tetrahydrospiro[indene-2,3′-pyrrolo[2,3-b]pyridin]-5-yl)amino)ethyl)piperidine-4-carboxamide], the IC50 was 2.19 nM.

For the molecule `CNCc1ccccc1CN(CC(=O)Nc1ccc2c(c1)CC1(C2)C(=O)Nc2ncccc21)C(=O)C1(C)CCN(C(=O)C2CCC2)CC1` (centres unmarked) [Example 5, 1-(Cyclobutanecarbonyl)-4-methyl-N-(2-((methylamino)methyl)benzyl)-N-(2-oxo-2-((2′-oxo-1,1′,2′,3-tetrahydrospiro[indene-2,3′-pyrrolo[2,3-b]pyridin]-5-yl)amino)ethyl)piperidine-4-carboxamide], the IC50 is 1.48 nM.

In the case of `CNCc1ccccc1CN(CC(=O)Nc1ccc2c(c1)CC1(C2)C(=O)Nc2ncccc21)C(=O)C1(C)CCN(C(=O)c2ccncc2)CC1` (centres unmarked) [Example 6, 1-Isonicotinoyl-4-methyl-N-(2-((methylamino)methyl)benzyl)-N-(2-oxo-2-((2′-oxo-1,1′,2′,3-tetrahydrospiro[indene-2,3′-pyrrolo[2,3-b]pyridin]-5-yl)amino)ethyl)piperidine-4-carboxamide], the IC50 was 2.29 nM.

As to `CNCc1ccccc1CN(CC(=O)Nc1ccc2c(c1)C[C@@]1(C2)C(=O)Nc2ncccc21)C(=O)C1(C)CCN(C(=O)CC2CCNCC2)CC1` [Example 7, (R)-4-Methyl-N-(2-((methylamino)methyl)benzyl)-N-(2-oxo-2-((2′-oxo-1,1′,2′,3-tetrahydrospiro[indene-2,3′-pyrrolo[2,3-b]pyridin]-5-yl)amino)ethyl)-1-(2-(piperidin-4-yl)acetyl)piperidine-4-carboxamide], the IC50 was 4.07 nM.

For the molecule `CNCc1ccccc1CN(CC(=O)Nc1ccc2c(c1)C[C@@]1(C2)C(=O)Nc2ncccc21)C(=O)C1(C)CCN(C(=O)C[C@@H]2CCNC2)CC1` [Example 8, 4-Methyl-N-(2-((methylamino)methyl)benzyl)-N-(2-oxo-2-(((R)-2′-oxo-1,1′,2′,3-tetrahydrospiro[indene-2,3′-pyrrolo[2,3-b]pyridin]-5-yl)amino)ethyl)-1-(2-((S)-pyrrolidin-3-yl)acetyl)piperidine-4-carboxamide], the IC50 was 18.2 nM.

As for `CNCc1ccccc1CN(CC(=O)Nc1ccc2c(c1)C[C@@]1(C2)C(=O)Nc2ncccc21)C(=O)C1(C)CCN(C(=O)C2CCNCC2)CC1` [Example 9, (R)-4-Methyl-N-(2-((methylamino)methyl)benzyl)-N-(2-oxo-2-((2′-oxo-1,1′,2′,3-tetrahydrospiro[indene-2,3′-pyrrolo[2,3-b]pyridin]-5-yl)amino)ethyl)-1-(piperidine-4-carbonyl)piperidine-4-carboxamide], the IC50 was 5.13 nM.

`CNCc1ccccc1CN(CC(=O)Nc1ccc2c(c1)C[C@@]1(C2)C(=O)Nc2ncccc21)C(=O)C1(C)CCN(C(=O)c2cccc(N)n2)CC1` [Example 10, (R)-1-(6-Aminopicolinoyl)-4-methyl-N-(2-((methylamino)methyl)benzyl)-N-(2-oxo-2-((2′-oxo-1,1′,2′,3-tetrahydrospiro[indene-2,3′-pyrrolo[2,3-b]pyridin]-5-yl)amino)ethyl)piperidine-4-carboxamide]: the IC50 was 8.91 nM.

As to `CNCc1ccccc1CN(CC(=O)Nc1ccc2c(c1)C[C@@]1(C2)C(=O)Nc2ncccc21)C(=O)C1(C)CCN(C(=O)C[C@H]2CCNC2)CC1` [Example 11, 4-Methyl-N-(2-((methylamino)methyl)benzyl)-N-(2-oxo-2-(((R)-2′-oxo-1,1′,2′,3-tetrahydrospiro[indene-2,3′-pyrrolo[2,3-b]pyridin]-5-yl)amino)ethyl)-1-(2-((R)-pyrrolidin-3-yl)acetyl)piperidine-4-carboxamide], the IC50 is 6.46 nM.

Take `CNCc1ccccc1CN(CC(=O)Nc1ccc2c(c1)C[C@@]1(C2)C(=O)Nc2ncccc21)C(=O)C1(C)CCN(C(=O)C2CCN(C(C)=O)CC2)CC1` [Example 12, (R)-1-(1-Acetylpiperidine-4-carbonyl)-4-methyl-N-(2-((methylamino)methyl)benzyl)-N-(2-oxo-2-((2′-oxo-1,1′,2′,3-tetrahydrospiro[indene-2,3′-pyrrolo[2,3-b]pyridin]-5-yl)amino)ethyl)piperidine-4-carboxamide]: the IC50 was 9.12 nM.

As for `CNCc1ccccc1CN(CC(=O)Nc1ccc2c(c1)C[C@@]1(C2)C(=O)Nc2ncccc21)C(=O)C1(C)CCN(C(=O)Cc2ccncc2)CC1` [Example 13, (R)-4-Methyl-N-(2-((methylamino)methyl)benzyl)-N-(2-oxo-2-((2′-oxo-1,1′,2′,3-tetrahydrospiro[indene-2,3′-pyrrolo[2,3-b]pyridin]-5-yl)amino)ethyl)-1-(2-(pyridin-4-yl)acetyl)piperidine-4-carboxamide], the IC50 was 15.5 nM.

For `CNCc1ccccc1CN(CC(=O)Nc1ccc2c(c1)CC1(C2)C(=O)Nc2ncccc21)C(=O)C1(C)CCN(C(=O)c2cccnc2)CC1` (centres unmarked) [Example 14, 4-Methyl-N-(2-((methylamino)methyl)benzyl)-1-nicotinoyl-N-(2-oxo-2-((2′-oxo-1,1′,2′,3-tetrahydrospiro[indene-2,3′-pyrrolo[2,3-b]pyridin]-5-yl)amino)ethyl)piperidine-4-carboxamide], the IC50 is 2 nM.

As to `CNCc1ccccc1CN(CC(=O)Nc1ccc2c(c1)CC1(C2)C(=O)Nc2ncccc21)C(=O)C1(C)CCN(C(=O)c2ccccn2)CC1` (centres unmarked) [Example 15, 4-Methyl-N-(2-((methylamino)methyl)benzyl)-N-(2-oxo-2-((2′-oxo-1,1′,2′,3-tetrahydrospiro[indene-2,3′-pyrrolo[2,3-b]pyridin]-5-yl)amino)ethyl)-1-picolinoylpiperidine-4-carboxamide], the IC50 is 0.759 nM.

For the molecule `CNCc1ccccc1CN(CC(=O)Nc1ccc2c(c1)C[C@@]1(C2)C(=O)Nc2ncccc21)C(=O)C1(C)CCN(C(=O)C(C)C)CC1` [Example 16, (R)-1-Isobutyryl-4-methyl-N-(2-((methylamino)methyl)benzyl)-N-(2-oxo-2-((2′-oxo-1,1′,2′,3-tetrahydrospiro[indene-2,3′-pyrrolo[2,3-b]pyridin]-5-yl)amino)ethyl)piperidine-4-carboxamide], the IC50 is 3.24 nM.

As for `CNCc1ccccc1CN(CC(=O)Nc1ccc2c(c1)C[C@@]1(C2)C(=O)Nc2ncccc21)C(=O)C1(C)CCN(C(=O)C(F)F)CC1` [Example 17, (R)-1-(2,2-Difluoroacetyl)-4-methyl-N-(2-((methylamino)methyl)benzyl)-N-(2-oxo-2-((2′-oxo-1,1′,2′,3-tetrahydrospiro[indene-2,3′-pyrrolo[2,3-b]pyridin]-5-yl)amino)ethyl)piperidine-4-carboxamide], the IC50 was 8.32 nM.
